Experiments:
[1] = biological target: T1, Bifunctional glucose-6-phosphate 1-dehydrogenase/6-phosphogluconolactonase (Plasmodium falciparum (isolate 3D7), UniProt Q8IKU0); test: Inhibition of Plasmodium falciparum G6PD-6PGL using G6P as substrate in presence of NADP+ by spectrofluorimetric analysis
T1 sequence (Q8IKU0 whole entry): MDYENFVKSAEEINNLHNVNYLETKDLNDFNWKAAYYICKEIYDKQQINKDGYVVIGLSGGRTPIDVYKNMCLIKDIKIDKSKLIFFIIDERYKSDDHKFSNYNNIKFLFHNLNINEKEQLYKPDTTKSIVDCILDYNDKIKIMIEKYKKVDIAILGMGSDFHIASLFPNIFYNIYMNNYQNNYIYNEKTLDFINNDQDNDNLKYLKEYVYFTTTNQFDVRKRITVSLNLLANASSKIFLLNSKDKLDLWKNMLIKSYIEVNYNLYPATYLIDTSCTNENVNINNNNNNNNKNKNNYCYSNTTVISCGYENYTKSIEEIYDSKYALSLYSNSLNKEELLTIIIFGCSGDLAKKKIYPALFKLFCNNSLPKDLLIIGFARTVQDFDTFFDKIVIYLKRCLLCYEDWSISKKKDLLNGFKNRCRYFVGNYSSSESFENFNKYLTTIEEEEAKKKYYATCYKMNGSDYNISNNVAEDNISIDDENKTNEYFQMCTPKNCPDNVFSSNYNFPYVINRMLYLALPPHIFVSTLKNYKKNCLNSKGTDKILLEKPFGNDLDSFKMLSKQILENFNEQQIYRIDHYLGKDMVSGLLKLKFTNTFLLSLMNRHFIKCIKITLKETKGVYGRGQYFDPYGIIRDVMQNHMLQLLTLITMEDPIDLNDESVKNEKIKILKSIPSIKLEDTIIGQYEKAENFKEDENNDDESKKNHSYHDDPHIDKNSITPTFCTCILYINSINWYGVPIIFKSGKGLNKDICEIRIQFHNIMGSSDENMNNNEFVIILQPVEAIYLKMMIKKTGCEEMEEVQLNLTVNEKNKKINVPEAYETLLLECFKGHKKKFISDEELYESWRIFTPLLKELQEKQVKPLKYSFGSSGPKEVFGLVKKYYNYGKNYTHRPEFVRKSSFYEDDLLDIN

[2] = Cytotoxicity against human HepG2 cells assessed as cell viability at 1.5 to 2 mM after 24 hrs by EZ4U staining-based spectrophotometric analysis relative to control; details: read-out: Activity
[3] = Cytotoxicity against human HepG2 cells assessed as cell survival at 0.2 to 1 mM after 24 hrs by EZ4U staining-based spectrophotometric analysis relative to control; details: read-out: Survival
[4] = biological target: T2, Glucose-6-phosphate 1-dehydrogenase (Homo sapiens, UniProt P11413); test: Inhibition of recombinant full length human G6PD expressed in Escherichia coli HB351 using G6P as substrate in presence of NADP+ by spectrofluorimetric analysis
T2 sequence (P11413 whole entry): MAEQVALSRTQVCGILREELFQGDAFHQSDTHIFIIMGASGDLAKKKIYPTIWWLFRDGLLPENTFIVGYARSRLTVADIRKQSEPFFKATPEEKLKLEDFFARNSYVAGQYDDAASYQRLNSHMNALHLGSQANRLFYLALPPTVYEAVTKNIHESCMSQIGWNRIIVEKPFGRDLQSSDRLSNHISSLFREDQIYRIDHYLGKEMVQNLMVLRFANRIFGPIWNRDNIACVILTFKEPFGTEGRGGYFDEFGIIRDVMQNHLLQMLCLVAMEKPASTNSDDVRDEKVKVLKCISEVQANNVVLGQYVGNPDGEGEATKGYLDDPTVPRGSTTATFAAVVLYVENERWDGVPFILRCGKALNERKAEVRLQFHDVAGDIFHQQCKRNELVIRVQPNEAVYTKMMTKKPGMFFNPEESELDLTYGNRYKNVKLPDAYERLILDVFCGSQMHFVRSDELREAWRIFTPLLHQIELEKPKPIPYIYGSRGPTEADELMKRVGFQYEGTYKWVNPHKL

[5] = test system: Plasmodium falciparum; test: Antiparasitic activity against Plasmodium falciparum Dd2 clone MRA-150 synchronized ring stage after 48 hrs by PicoGreen dye based microfluorimetric analysis; type: functional, organism-based; details: Dd2 clone MRA-150, 48 h
[6] = Selectivity index, ratio of Ki for recombinant full length human G6PD to Ki for Plasmodium falciparum G6PD-6PGL
[7] = biological target: T1, Bifunctional glucose-6-phosphate 1-dehydrogenase/6-phosphogluconolactonase; test: Competitive inhibition of Plasmodium falciparum G6PD-6PGL using G6P as substrate in presence of NADP+ by Lineweaver-Burk plot analysis
[8] = biological target: T2, Glucose-6-phosphate 1-dehydrogenase; test: Competitive inhibition of recombinant full length human G6PD expressed in Escherichia coli HB351 using G6P as substrate in presence of NADP+ by Lineweaver-Burk plot analysis

Structure (SMILES) | Ki [1] | viability at 24 h, 2000 µM [2] | viability at 24 h, up to 1000 µM [3] | Ki [4] | IC50 [5] | Ratio Ki [6] | IC50 [7] | IC50 [8]
CO[C@H]1O[C@H](CS(=O)(=O)CCCN)[C@@H](O)[C@H](O)[C@H]1O | 34.4 µM | < 80% | > 80% | 35.4 µM | > 2000 µM | 1 | – | –
CCN1CCC[C@@H]1CNC(=O)c1ccc2c(c1)NC(=O)c1cccc(C)c1S2 | – | – | – | – | – | – | 0.19 µM | > 80 µM
CCN1CCC[C@@H]1CNC(=O)c1ccc2c(c1)NC(=O)/C(=C/c1ccccc1F)S2 | – | – | – | – | – | – | 0.9 µM | > 80 µM
CO[C@H]1O[C@H](CSCCC#N)[C@@H](O)[C@H](O)[C@H]1O | 259 µM | – | > 80% | > 200 µM | 1020 µM | > 0.8 | – | –
CO[C@H]1O[C@H](CNS(=O)(=O)CCNC(=N)N)[C@@H](O)[C@H](O)[C@H]1O | 32.4 µM | < 80% | > 80% | 16.8 µM | 330 µM | 0.5 | – | –
CO[C@H]1O[C@H](CSCCCN)[C@@H](O)[C@H](O)[C@H]1O | 289 µM | < 80% | > 80% | 129 µM | > 2000 µM | 0.4 | – | –
CO[C@H]1O[C@H](CS(=O)(=O)CCC#N)[C@@H](O)[C@H](O)[C@H]1O | 68.8 µM | – | > 80% | > 200 µM | 960 µM | > 2.9 | – | –
CO[C@H]1O[C@H](CSCCN)[C@@H](O)[C@H](O)[C@H]1O | 76.1 µM | – | > 80% | > 2000 µM | 1750 µM | > 26 | – | –
CO[C@H]1O[C@H](CNS(=O)(=O)CCN)[C@@H](O)[C@H](O)[C@H]1O | 22.8 µM | – | > 80% | > 400 µM | 1470 µM | > 18 | – | –
CO[C@H]1O[C@H](CSCCNC(=N)N)[C@@H](O)[C@H](O)[C@H]1O | 45.6 µM | – | > 80% | > 200 µM | 590 µM | > 4.4 | – | –
CO[C@H]1O[C@H](CS(=O)(=O)CCCNC(=N)N)[C@@H](O)[C@H](O)[C@H]1O | 42.9 µM | < 80% | > 80% | 22.3 µM | 1570 µM | 0.5 | – | –
